Experimental data reported in patent US20050054582A1, “Para-amino benzoic acids as integrin antagonists” (priority 2001, published 2005).
Where two headings read alike, the source gives them in different places.

Tests used:
[1] = system: adhesion of Ramos cells to VCAM-1; experiment: Adhesion of Ramos cells to immobilized VCAM-1 (domains 1-3); format: cell-based; conditions: Homo sapiens
From the text: In Vitro Assay: Adhesion of Ramos Cells to Immobilized VCAM-1 (Domains 1-3) Preparation of VCAM-1 (Extracellular Domains 1-3)
Complementary DNA (cDNA) encoding 7-domain form of VCAM-1 (GenBank accession #M60335) was obtained using Rapid-Screen™ cDNA library panels (OriGene Technologies, Inc) at Takara Gene Analysis Center (Shiga, Japan). The primers used were 5′-CCAAGGCAGAGTACGCAAAC-3′ (sense) and 5′-TGGCAGGTATTATTAAGGAG-3′ (antisense). PCR amplification of the 3-domain VCAM-1 cDNA was perform using Pfu DNA polymerase (Stratagene) with the following sets of primers: (U-VCAMd1-3) 5′-CCATATGGTACCTGATCAATTTAAAATCGAGACCACCCCAGAA-3′; (L-VCAMdl-3) 5-CCATATAGCAATCCTAGGTCCAGGGGAGATCTCAACAGTAAA-3′. PCR cycle was 94° C. for 45 sec, 55° C. for 45 sec, 72° C. for 2 min, repeating 15 cycles. After the purification of the PCR product, the fragment was digested with KpnI-AvrII. The digested fragment was ligated into pBluescript IISK(−) (Strategene), which was linearized by digesting with KpnI-XhoI. The ligation was followed by transformation to a Dam/Dcm methylase-free E. coli strain SCS110 (Strategene) to create the donor plasmid […]. To direct VCAM-1 molecule into the insect cell secretory pathway, the VCAM-1 coding sequence was fused to signal peptide sequence of honeybee melittin. The resulting melittin-VCAM fusion was placed in correct orientation to the baculovirus polyhedrin promoter. Baculovirus transfer vector containing first 3-domain form VCAM-1 (pH10) was constructed by ligation of 0.9 kb fragment from AvrII/Klenow/BclI digests of pH7 into SalI/Klenow/BamHI digests of pMelBacB (Invitrogen). Recombinant baculovirus was generated by using Bac-N-Blue™ Transfection kit (Invitrogen) according to the manufacture's instruction. The recombinant virus was amplified by infection to High-Five™ insect cells for 5-6 days, and virus titer was determined by plaque assay.
High-Five™ insect cells were pelleted in a 225 ml conical tube by centrifugation at 1000 rpm for 5 min. After discarding the supernatant, the pellet was resuspended in 1.5×10^9 pfu (MOI=5) of high-titer virus solution, followed by incubation for 1.5 hours at room temperature. The cells were pelleted again and washed once in fresh Express Five™ serum free medium. The cells were pelleted again and finally, resuspended in 200 ml of fresh Express Five TM medium, transferred to a 1,000 ml shaker flask, and incubated in a shaker at 27° C., 130 rpm, for 48 hours before the culture supernatant was collected. The purification of 3-domain form of VCAM-1 from the culture supernatant was performed by one-step anion exchange chromatography. Protein concentration was determined by using Coomassie protein assay reagent (Pierce) according to the manufacture's instruction.
Preparation of VCAM-1 Coated Microtiter Plates
Recombinant human VCAM-1 (extracellular domains 1-3) was dissolved at 1.0 μg/ml in PBS. Each well of the microtiter plates (Nalge Nunc International, Fluoronunc Cert, 437958) was coated with 100 μl of substrate or for background control with buffer alone for 15 hours at 4 C. After discarding the substrate solution, the wells were blocked using 150 μl per well of block solution (Kirkegaard Perry Laboratories, 50-61-01) for 90 minutes. The plate was washed with wash buffer containing 24 mM Tris-HCl (pH 7.4), 137 mM NaCl, […] and 2 mM MnCl2 just before addition of the assay.
In Vitro Assay using Ramos Cells
Preparation of Fluorescence Labeled Ramos Cells:
Ramos cells (American Type Culture Collection, Clone CRL-1596) were cultured in RPMI 1640 medium (Nikken Bio Medical Laboratory, CM1101) supplemented with 10% fetal bovine serum (Hyclone, A-1119-L), 100 U/ml penicilin (Gibco BRL, 15140-122) and 100 μg/ml streptomycin (Gibco BRL, 15140-122) in a humidified incubator at 37° C. with 5% CO2. […]

[2] = observed IC50 value ranges, Table 4 does not say whether Ramos-VCAM-1 or Jurkat-VCAM-1, read-out: IC50

Cc1ccccc1NC(=O)Nc1ccc(CC(=O)NCC(=O)Nc2ccc(C(=O)O)cc2)cc1 [Example 39, 4-[(N-{[4-({[(2-methylphenyl)amino]carbonyl}amino)phenyl]acetyl}glycyl)amino]benzoic acid]
IC50 ([1]; Ramos): < 500 nM | melting point: 268 to 271 °C

Cc1ccccc1NC(=O)Nc1ccc(CC(=O)NC2CCCN(c3ccc(C(=O)O)cc3)C2)cc1 (stereo not shown) [Example 49, 4-[3-({[4-({[(2-methylphenyl)amino]carbonyl}amino)phenyl]acetyl}amino)-1-piperidinyl]benzoic acid]
IC50 ([1]; Ramos): < 500 nM | melting point: 236 to 238 °C

Cc1ccccc1NC(=O)Nc1ccc(CC(=O)NC2CCN(c3ccc(C(=O)O)cc3)C2)cc1 (stereo not shown) [Example 50, 4-[3-({[4-({[(2-methylphenyl)amino]carbonyl}amino)phenyl]acetyl}amino)-1-pyrrolidinyl]benzoic acid]
IC50 ([1]; Ramos): < 500 nM | melting point: 239 to 242 °C

Cc1ccccc1NC(=O)Nc1ccc(CC(=O)NCC(=O)N(CC(C)C)c2ccc(C(=O)O)cc2)cc1 [Example 51, 4-[isobutyl(N-{[4-({[(2-methylphenyl)amino]carbonyl}amino)phenyl]acetyl}glycyl)amino]benzoic acid]
IC50 ([1]; Ramos): > 10000 nM | melting point: 131 to 132 °C

COCCCN(CC(=O)N(CC(C)C)c1ccc(C(=O)O)cc1)C(=O)Cc1ccc(NC(=O)Nc2ccccc2C)cc1 [Example 52, 4-[isobutyl(N-(3-methoxypropyl)-V-{[4-({[(2-methylphenyl)amino]carbonyl}amino)phenyl]acetyl}glycyl)amino]benzoic acid]
IC50 ([1]; Ramos): > 10000 nM | melting point: 76 to 76.5 °C

COCCCN(CC(=O)N(C)c1ccc(C(=O)O)cc1)C(=O)Cc1ccc(NC(=O)Nc2ccccc2C)cc1 [Example 53, 4-[(N-(3-methoxypropyl)-N-{[4-({[(2-methylphenyl)amino]carbonyl}amino)phenyl]acetyl}glycyl)(methyl)amino]benzoic acid]
IC50 ([1]; Ramos): 500 to 2000 nM | melting point: 63 to 64 °C

Cc1ccccc1NC(=O)Nc1ccc(CC(=O)N[C@@H](CCCCN)C(=O)Nc2ccc(C(=O)O)cc2)cc1.O=C(O)C(F)(F)F [Example 53a]
IC50 [1, 2]: < 500 nM | melting point: 168 to 169 °C

Cc1ccccc1NC(=O)Nc1ccc(CC(=O)N[C@H](CCCCN)C(=O)Nc2ccc(C(=O)O)cc2)cc1.O=C(O)C(F)(F)F [Example 54, 4-[(N^2-{[4-({[(2-methylphenyl)amino]carbonyl}amino)phenyl]acetyl}-D-lysyl)amino]benzoic acid trifluoroacetate]
IC50 [1, 2]: < 500 nM | melting point: 73 to 75 °C

O=C(Cc1ccc2nc(Nc3ccccc3)oc2c1)NCC(=O)Nc1ccc(C(=O)O)cc1 [Example 74, 4-({N-[(2-anilino-1,3-benzoxazol-6-yl)acetyl]glycyl}amino)benzoic acid]
IC50 ([1]; Ramos): < 500 nM | melting point: > 280 °C

O=C(CN(CCc1ccccc1)C(=O)Cc1ccc2nc(Nc3ccccc3)oc2c1)Nc1ccc(C(=O)O)cc1 [Example 75, 4-{[N-[(2-anilino-1,3-benzoxazol-6-yl)acetyl]-N-(2-phenylethyl)glycyl]-amino}benzoic acid]
IC50 ([1]; Ramos): < 500 nM | melting point: 160 to 162 °C

O=C(CN(CCc1ccccn1)C(=O)Cc1ccc2nc(Nc3ccccc3)oc2c1)Nc1ccc(C(=O)O)cc1 [Example 76, 4-({N-[(2-anilino-1,3-benzoxazol-6-yl)acetyl]-N-[2-(2-pyridinyl)ethyl]glycyl}amino)benzoic acid]
IC50 ([1]; Ramos): < 500 nM | melting point: 252 to 253 °C

O=C(CN(CCc1cccc(Cl)c1)C(=O)Cc1ccc2nc(Nc3ccccc3)oc2c1)Nc1ccc(C(=O)O)cc1 [Example 78]
IC50 ([1]; Ramos): 500 to 2000 nM | melting point: 162 to 165 °C

O=C(CN(CCc1ccc(Cl)c(Cl)c1)C(=O)Cc1ccc2nc(Nc3ccccc3)oc2c1)Nc1ccc(C(=O)O)cc1 [Example 79]
IC50 ([1]; Ramos): 2000 to 10000 nM | melting point: 170 to 171 °C

O=C(CN(CCc1ccc(Oc2ccc(Cl)cc2)cc1)C(=O)Cc1ccc2nc(Nc3ccccc3)oc2c1)Nc1ccc(C(=O)O)cc1 [Example 80]
IC50 ([1]; Ramos): > 10000 nM | melting point: 156 to 158 °C

Cc1ccccc1Nc1nc2ccc(CC(=O)NCC(=O)Nc3ccc(C(=O)O)cc3)cc2o1 [Example 81, 4-{[N-({2-[(2-methylphenyl)amino]-1,3-benzoxazol-6-yl}acetyl)glycyl]-amino}benzoic acid]
IC50 ([1]; Ramos): < 500 nM | melting point: 267 to 268 °C

Cc1ccccc1Nc1nc2ccc(CC(=O)N(CCc3ccccc3)CC(=O)Nc3ccc(C(=O)O)cc3)cc2o1 [Example 82, 4-{[N-({2-[(2-methylphenyl)amino]-1,3-benzoxazol-6-yl}acetyl)-N-(2-phenylethyl)glycyl]amino}benzoic acid]
IC50 ([1]; Ramos): < 500 nM | melting point: 232 to 233 °C

Cc1ccccc1Nc1nc2ccc(CC(=O)N(CCc3ccccn3)CC(=O)Nc3ccc(C(=O)O)cc3)cc2o1 [Example 83, 4-({N-({2-[(2-methylphenyl)amino]-1,3-benzoxazol-6-yl}acetyl)-N-[2-(2-pyridinyl)ethyl]glycyl}amino)benzoic acid]
IC50 ([1]; Ramos): < 500 nM | melting point: 175 to 176 °C
